Measurements from article PMC11571108, “Targeting PfCLK3 with Covalent Inhibitors: A Novel Strategy for Malaria Treatment” (Journal of Medicinal Chemistry, 2024).
pIC50: −log10 of the molar value. Values joined by “and” are separate entries in the source; they are usually repeats but may differ in a detail not shown here. Identical values can stand only once.

What was measured:
[1] = target: T1, recombinant full-length PfCLK3 (Plasmodium falciparum, UniProt Q8IIL5); assay: TR-FRET protein kinase assay; assay type: biochemical; conditions: Apparent pIC50 (PfCLK3), 15 min preincubation, 2 h incubation
T1 sequence (Q8IIL5 1-699): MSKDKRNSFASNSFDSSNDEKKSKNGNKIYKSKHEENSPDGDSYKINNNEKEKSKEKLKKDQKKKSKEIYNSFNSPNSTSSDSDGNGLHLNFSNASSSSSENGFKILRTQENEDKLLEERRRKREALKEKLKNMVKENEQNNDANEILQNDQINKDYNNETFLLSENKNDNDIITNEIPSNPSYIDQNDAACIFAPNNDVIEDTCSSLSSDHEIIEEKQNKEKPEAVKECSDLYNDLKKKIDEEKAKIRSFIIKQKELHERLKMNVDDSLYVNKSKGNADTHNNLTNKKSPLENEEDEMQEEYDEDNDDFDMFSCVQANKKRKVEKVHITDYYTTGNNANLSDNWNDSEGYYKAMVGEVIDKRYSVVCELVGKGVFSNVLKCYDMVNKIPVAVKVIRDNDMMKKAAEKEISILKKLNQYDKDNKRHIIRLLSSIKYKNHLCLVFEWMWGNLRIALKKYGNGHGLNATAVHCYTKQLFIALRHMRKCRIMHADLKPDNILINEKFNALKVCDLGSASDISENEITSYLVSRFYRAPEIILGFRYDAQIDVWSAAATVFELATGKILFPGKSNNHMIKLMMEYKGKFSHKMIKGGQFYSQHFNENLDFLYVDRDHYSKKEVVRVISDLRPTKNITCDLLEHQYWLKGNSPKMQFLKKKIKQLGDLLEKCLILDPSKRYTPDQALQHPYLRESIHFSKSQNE
Method: To a black 384-well plate was added 2.5 μL of each concentration of inhibitor serially diluted 1 in 3, 11 times from a 40 μM (4×) top concentration normalized to 4% DMSO, and 5 μL of 50 nM (2×) recombinant PfCLK3. Both were dissolved in kinase buffer (50 mM HEPES 7.4, 1 mM EGTA, 1 mM MgCl2, 0.01% Tween, and 1 mM TCEP). […] 5 μL of detection mix (30 mM EDTA, 3 nM AntiMBP in 1× PerkinElmer Lance detection buffer) was added to quench the kinase reaction, and plates were incubated at room temperature in the dark for 1 h.

[2] = test system: full-length PfCLK3; conditions: PfCLK3 5 μg; triplicate wells
Method: To a 384-well thermal shift plate, 5 μL protein thermal shift buffer (Thermo Fisher Scientific), 5 μg full length PfCLK3 (4.17 μL, 1.2 mg/mL), 8.13 μL thermal shift buffer (Thermo Fisher Scientific), 0.2 μL 10 mM compound or vehicle (DMSO), and 2.5 μL protein thermal shift dye (Thermo Fisher Scientific) were added in triplicate. […] 5 Qpcr (Thermo Fisher Scientific). Fluorescence was recorded as proteins unfolded. The Boltzmann distribution was calculated and Tm obtained using Protein Thermal Shift Software v1.4 (Thermo Fisher Scientific).

[3] = Microsomal stability; assay type: in vitro ADME; conditions: human, liver microsomes, 0.5 mg/mL microsomes, 37 °C
Method: Peak areas were determined from extracted ion chromatograms.

[4] = target: T2, PI3 Kinase (p110a/p85a)(h) (Homo sapiens, UniProt P42336); assay: KinaseProfiler radiometric assay; assay type: biochemical; conditions: 1 µM compound
T2 construct: purchased Eurofins Discovery KinaseProfiler
Source text: (§1) A representative protocol for Abl is given below.

[5] = target: T3, PI3 Kinase (p110b/p85a)(h) (Homo sapiens, UniProt P42338); assay: KinaseProfiler radiometric assay; assay type: biochemical; conditions: 1 µM compound
T3 construct: purchased Eurofins Discovery KinaseProfiler
Source text: as §1

[6] = target: T4, PI3 Kinase (p110d/p85a)(h) (Homo sapiens, UniProt O00329); assay: KinaseProfiler radiometric assay; assay type: biochemical; conditions: 1 µM compound
T4 construct: purchased Eurofins Discovery KinaseProfiler
Source text: as §1

[7] = target: Abl(h) (Homo sapiens, UniProt P00519); assay: biochemical
Method: (§2) Compounds were evaluated using Eurofins Discovery’s KinaseProfiler Diversity Panel of 58 representative kinases. KinaseProfiler is a radiometric assay using [γ-^33P]-ATP to measure the phosphorylation of individual kinase substrates. A representative protocol for Abl is given below.
(§3) The reaction is initiated by the addition of the Mg/ATP mix. After incubation for 40 min at room temperature, the reaction is stopped by the addition of phosphoric acid to a concentration of 0.5%.

[8] = target: ALK(h) (Homo sapiens, UniProt Q9UM73); assay: biochemical
Method: as §2, §3

[9] = target: AMPKα1(h) (Homo sapiens, UniProt Q13131); assay: biochemical
Method: as §2, §3

[10] = target: ASK1(h) (Homo sapiens, UniProt Q99683); assay: biochemical
Method: as §2, §3

[11] = target: Aurora-A(h) (Homo sapiens, UniProt O14965); assay: biochemical
Method: as §2, §3

[12] = target: CaMKI(h) (Homo sapiens, UniProt Q14012); assay: biochemical
Method: as §2, §3

[13] = target: CDK1/cyclinB(h) (Homo sapiens, UniProt P06493); assay: biochemical
Method: as §2, §3

[14] = target: CDK2/cyclinA(h) (Homo sapiens, UniProt P24941); assay: biochemical
Method: as §2, §3

[15] = target: CDK6/cyclinD3(h) (Homo sapiens, UniProt Q00534); assay: biochemical
Method: as §2, §3

[16] = target: CDK7/cyclinH/MAT1(h) (Homo sapiens, UniProt P50613); assay: biochemical
Method: as §2, §3

[17] = target: CDK9/cyclin T1(h) (Homo sapiens, UniProt P50750); assay: biochemical
Method: as §2, §3

[18] = target: CHK1(h) (Homo sapiens, UniProt O14757); assay: biochemical
Method: as §2, §3

[19] = target: c-RAF(h) (Homo sapiens, UniProt P04049); assay: biochemical
Method: as §2, §3

[20] = target: DRAK1(h) (Homo sapiens, UniProt Q9UEE5); assay: biochemical
Method: as §2, §3

CDK7/cyclinH/MAT1(h), sequence (P50613 whole entry): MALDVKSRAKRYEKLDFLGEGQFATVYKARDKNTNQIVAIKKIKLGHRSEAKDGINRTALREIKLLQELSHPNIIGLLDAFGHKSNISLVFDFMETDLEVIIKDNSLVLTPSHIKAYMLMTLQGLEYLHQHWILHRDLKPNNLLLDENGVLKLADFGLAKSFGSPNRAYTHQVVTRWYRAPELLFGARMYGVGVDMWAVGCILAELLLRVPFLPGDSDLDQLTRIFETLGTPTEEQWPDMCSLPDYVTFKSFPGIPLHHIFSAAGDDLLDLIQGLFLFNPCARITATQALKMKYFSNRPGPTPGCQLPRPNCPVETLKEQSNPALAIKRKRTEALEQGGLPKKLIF
CDK7/cyclinH/MAT1(h), sequence (P51946 whole entry partner): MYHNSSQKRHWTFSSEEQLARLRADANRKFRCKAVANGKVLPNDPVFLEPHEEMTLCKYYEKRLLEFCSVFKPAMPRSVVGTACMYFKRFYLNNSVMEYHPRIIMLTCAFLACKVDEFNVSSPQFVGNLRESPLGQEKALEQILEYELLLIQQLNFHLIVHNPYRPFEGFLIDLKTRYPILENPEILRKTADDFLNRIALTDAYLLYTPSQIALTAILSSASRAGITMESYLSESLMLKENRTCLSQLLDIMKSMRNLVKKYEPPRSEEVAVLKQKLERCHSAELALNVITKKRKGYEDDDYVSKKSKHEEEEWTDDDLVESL
CDK7/cyclinH/MAT1(h), sequence (P51948 whole entry partner): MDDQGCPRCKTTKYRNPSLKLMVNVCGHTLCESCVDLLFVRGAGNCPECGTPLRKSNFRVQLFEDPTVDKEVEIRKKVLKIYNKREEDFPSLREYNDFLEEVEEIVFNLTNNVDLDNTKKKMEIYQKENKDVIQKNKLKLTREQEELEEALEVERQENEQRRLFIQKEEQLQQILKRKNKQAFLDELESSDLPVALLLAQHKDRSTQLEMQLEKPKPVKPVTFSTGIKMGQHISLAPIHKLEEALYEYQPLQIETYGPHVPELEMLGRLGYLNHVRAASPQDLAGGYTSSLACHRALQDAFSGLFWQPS
ALK(h), sequence (Q9UM73 19-1620): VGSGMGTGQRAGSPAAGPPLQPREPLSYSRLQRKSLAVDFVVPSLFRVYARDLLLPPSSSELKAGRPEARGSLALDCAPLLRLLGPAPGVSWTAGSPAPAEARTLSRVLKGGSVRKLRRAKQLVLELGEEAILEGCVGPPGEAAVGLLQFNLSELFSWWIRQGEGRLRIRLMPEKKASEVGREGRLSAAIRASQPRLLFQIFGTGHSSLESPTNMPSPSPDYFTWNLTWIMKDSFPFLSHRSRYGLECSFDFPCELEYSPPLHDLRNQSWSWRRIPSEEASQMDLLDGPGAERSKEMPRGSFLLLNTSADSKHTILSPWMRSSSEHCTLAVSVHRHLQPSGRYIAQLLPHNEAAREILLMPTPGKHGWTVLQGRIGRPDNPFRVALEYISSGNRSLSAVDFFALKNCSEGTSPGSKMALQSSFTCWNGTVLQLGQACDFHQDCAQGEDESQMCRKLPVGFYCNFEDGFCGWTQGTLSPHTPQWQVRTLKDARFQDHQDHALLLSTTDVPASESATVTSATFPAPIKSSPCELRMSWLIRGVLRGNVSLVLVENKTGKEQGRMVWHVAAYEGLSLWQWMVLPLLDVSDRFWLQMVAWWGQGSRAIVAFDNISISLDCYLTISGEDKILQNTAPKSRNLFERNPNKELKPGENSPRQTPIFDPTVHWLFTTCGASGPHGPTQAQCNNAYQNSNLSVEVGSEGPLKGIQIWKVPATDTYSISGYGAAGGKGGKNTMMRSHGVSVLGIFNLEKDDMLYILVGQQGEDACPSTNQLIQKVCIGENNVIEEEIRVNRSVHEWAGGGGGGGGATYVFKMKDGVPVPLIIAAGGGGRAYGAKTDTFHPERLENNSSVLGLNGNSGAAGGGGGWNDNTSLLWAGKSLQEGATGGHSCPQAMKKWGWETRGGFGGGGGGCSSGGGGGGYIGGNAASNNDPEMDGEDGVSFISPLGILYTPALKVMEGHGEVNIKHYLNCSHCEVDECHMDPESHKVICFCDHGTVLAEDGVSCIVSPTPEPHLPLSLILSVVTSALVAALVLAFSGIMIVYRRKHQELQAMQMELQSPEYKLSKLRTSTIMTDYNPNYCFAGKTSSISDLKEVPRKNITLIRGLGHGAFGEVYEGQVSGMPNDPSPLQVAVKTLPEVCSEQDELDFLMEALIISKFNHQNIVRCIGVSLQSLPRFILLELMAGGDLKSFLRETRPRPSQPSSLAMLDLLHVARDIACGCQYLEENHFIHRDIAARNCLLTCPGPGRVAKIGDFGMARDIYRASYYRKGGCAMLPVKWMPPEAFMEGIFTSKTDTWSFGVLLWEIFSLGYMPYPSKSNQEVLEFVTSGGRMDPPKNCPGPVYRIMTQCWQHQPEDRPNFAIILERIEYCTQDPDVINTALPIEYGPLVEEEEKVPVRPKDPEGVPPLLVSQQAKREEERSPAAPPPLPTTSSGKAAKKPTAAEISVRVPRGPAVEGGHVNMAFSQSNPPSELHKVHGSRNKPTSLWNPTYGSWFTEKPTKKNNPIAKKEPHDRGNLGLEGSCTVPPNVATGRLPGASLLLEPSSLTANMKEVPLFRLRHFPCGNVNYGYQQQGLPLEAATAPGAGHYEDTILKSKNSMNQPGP
CDK9/cyclin T1(h), sequence (P50750 whole entry): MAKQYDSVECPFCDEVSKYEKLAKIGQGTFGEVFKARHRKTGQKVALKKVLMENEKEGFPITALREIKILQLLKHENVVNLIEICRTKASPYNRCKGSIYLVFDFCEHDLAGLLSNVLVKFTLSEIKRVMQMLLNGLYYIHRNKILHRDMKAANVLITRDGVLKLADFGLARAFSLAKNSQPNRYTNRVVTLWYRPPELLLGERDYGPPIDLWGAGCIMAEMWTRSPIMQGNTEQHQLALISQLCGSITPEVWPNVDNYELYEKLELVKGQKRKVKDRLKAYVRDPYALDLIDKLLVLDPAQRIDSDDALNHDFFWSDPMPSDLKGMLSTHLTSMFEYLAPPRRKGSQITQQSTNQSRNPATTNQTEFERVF
CDK9/cyclin T1(h), sequence (O60563 whole entry partner): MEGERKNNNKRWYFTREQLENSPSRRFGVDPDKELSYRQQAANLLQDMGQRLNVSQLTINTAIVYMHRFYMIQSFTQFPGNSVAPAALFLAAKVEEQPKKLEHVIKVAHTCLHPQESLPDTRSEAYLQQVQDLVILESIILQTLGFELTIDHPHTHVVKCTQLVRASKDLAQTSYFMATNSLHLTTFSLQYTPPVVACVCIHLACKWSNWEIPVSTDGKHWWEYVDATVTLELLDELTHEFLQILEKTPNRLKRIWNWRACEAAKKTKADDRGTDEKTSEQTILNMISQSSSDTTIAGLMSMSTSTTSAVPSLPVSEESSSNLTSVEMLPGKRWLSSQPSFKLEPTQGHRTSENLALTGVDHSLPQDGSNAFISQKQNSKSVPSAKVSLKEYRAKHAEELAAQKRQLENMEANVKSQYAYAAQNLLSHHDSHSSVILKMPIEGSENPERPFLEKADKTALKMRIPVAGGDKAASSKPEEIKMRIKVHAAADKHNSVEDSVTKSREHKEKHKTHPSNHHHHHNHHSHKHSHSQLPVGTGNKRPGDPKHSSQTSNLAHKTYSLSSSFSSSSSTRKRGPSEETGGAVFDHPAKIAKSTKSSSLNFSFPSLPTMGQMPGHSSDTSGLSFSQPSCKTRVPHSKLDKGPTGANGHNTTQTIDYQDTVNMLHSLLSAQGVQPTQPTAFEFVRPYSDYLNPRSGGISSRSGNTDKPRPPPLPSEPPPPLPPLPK
Abl(h), sequence (P00519 whole entry): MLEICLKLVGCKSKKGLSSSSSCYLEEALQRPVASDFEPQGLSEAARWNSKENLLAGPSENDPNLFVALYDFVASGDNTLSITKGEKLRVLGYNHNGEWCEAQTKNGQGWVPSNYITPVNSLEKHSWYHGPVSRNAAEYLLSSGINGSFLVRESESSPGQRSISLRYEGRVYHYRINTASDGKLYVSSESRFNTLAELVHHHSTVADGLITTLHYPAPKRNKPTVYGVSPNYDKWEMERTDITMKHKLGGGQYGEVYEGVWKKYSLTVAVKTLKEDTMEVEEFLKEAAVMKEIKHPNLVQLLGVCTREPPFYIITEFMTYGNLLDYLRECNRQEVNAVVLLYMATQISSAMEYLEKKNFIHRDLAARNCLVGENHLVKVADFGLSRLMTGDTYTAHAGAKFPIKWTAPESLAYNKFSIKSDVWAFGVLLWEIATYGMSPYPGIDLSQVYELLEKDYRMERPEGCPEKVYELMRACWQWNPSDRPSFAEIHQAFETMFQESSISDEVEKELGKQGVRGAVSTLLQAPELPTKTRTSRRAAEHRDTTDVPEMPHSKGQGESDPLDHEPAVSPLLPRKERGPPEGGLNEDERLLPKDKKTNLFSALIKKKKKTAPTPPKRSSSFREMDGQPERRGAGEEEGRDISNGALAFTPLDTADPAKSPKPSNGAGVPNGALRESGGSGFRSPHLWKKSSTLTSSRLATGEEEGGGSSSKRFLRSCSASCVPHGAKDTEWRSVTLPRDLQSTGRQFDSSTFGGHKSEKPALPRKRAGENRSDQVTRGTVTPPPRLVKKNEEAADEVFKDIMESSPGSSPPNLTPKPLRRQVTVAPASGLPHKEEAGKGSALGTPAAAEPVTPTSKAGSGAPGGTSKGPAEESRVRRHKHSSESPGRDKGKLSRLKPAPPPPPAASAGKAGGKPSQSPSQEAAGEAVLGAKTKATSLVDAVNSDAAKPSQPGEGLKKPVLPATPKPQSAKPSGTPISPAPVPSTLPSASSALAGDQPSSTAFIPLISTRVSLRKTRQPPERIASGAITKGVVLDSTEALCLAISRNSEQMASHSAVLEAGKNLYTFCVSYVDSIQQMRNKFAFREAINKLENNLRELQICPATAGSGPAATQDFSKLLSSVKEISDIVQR

CCN(CC)Cc1ccc(OC)c(-c2cc3c(-c4ccc(C(=O)O)c(C(C)C)c4)ccnc3[nH]2)c1 [Compound 1, TCMDC-135051]
pIC50 ([1]; [ATP] = 500 μM): 7.06 | pIC50 ([1]; [ATP] = 3 mM): 6.35 | pIC50 ([1]; [ATP] = Km (5 μM)): 8.11 | Tm B [2]: 66.66 and 66.67 and 66.65 | microsomal CLint at 1 μM ([3]; read-out: HLM CLint (intrinsic clearance)): < 7.5 µL/min/mg | half-life at 1 μM ([3]; read-out: HLM t1/2): > 3.07 h | remaining activity at 1 µM [4]: 100% | remaining activity at 1 µM [5]: 99% | remaining activity at 1 µM [6]: 73% | remaining activity at 1 µM [7]: 68% | remaining activity at 1 µM [8]: 30% | remaining activity at 1 µM [9]: 46% | remaining activity at 1 µM [10]: 92% | remaining activity at 1 µM [11]: 11% | remaining activity at 1 µM [12]: 100% | remaining activity at 1 µM [13]: 15% | remaining activity at 1 µM [14]: 30% | remaining activity at 1 µM [15]: 82% | remaining activity at 1 µM [16]: 102% | remaining activity at 1 µM [17]: 6% | remaining activity at 1 µM [18]: 101% | remaining activity at 1 µM [19]: 106% | remaining activity at 1 µM [20]: 83%
